From patent US8765808B2, “Treatment or prevention of cancer and precancerous disorders” (CHS Pharma, Inc., priority 2005, dated 2014)
“Also recorded” adds a separate entry of the source.

Key:
[1] = test system: SCC-25 squamous cell skin cancer cell line; assay: MTS cell viability after pretreatment and oxidative stress, SCC skin cancer cells; format: cell-based, human; settings: 500 μM sulindac 24 hr pretreatment, then TBHP 2 hr (FIG. 1)
Procedure: (§1) SCC-25 is a human squamous cell carcinoma cell line developed by J G Rheinwald [Rheinwald, 1981]. […] The cells were maintained in minimum essential medium (Eagle) supplemented with 2 mM L-glutamine, Earle's BSS containing 1.5 g/L sodium bicarbonate, 0.1 mM non-essential amino acids, 1.0 mM sodium pyruvate and 10% fetal bovine serum.
The experimental approach was to pretreat SCC cells with sulindac for 24 hr prior to exposure to TBHP for 2 hr. Sulindac (Sigma; S-8139) was freshly prepared as a 1M stock solution in 1M Tris.Cl, pH 8.0. SCC cells were suspended in culture medium containing 10% fetal bovine serum at a cell density of 6×10^5 cells/ml. Cell suspensions containing 500 μM sulindac or no sulindac (Control) were plated in 96 well microtiter plates with a total of 6×10^4 cells per well. The plates were incubated for 24 hr at 37° C. in a 5% CO2 incubator. The culture medium was then removed and the cells washed once with fresh culture medium without serum. After removal of the wash solution, fresh culture medium without serum that contained the indicated final concentration of TBHP was added to the cells for 2 hrs. Serum was omitted from the medium during the two-hour exposure to TBHP since TBHP may be rapidly depleted in the presence of serum.

[2] = test system: RKO colon cancer cell line; assay: MTS cell viability after pretreatment and oxidative stress, RKO colon cancer cells; format: cell-based, human; settings: 500 μM sulindac 24 hr pretreatment, then TBHP 2 hr (FIG. 4)
Procedure: as §1, with “RKO” for “SCC-25”, “colon” for “squamous cell”, “Michael Brattain [Brattain, 1984].” for “J G Rheinwald [Rheinwald, 1981].”
Experiments were performed with the RKO colon cancer cells that were pretreated with 500 μM sulindac using TBHP.

[3] = test system: WM-266-4 Melanoma skin cell line; assay: MTS cell viability after pretreatment and oxidative stress, melanoma cells; format: cell-based, human; settings: 500 μM sulindac 24 hr pretreatment, then TBHP 2 hr (FIG. 8)
[4] = test system: normal human epidermal keratinocytes; assay: Cell viability after sulindac pretreatment and oxidative stress, normal keratinocytes; format: cell-based
Procedure: Experiments using similar methods were performed with primary human neonatal foreskin epidermal keratinocytes. These cells were of low-passage and purified using previously accepted protocols (provided by J. Li, University of Miami, Fl.). Cells were grown in 50% Keratinocyte-SFM media [Gibco-Invitrogen (Catalog #17005-042) supplemented with human recombinant Epidermal Growth Factor 1-53 (EGF 1-53) and Bovine Pituitary Extract (BPE)] with 50% EpiLife medium [Cascade Biologics (Catalog #Epi-500-Ca)] supplemented with purified bovine serum albumin, purified bovine transferrin, hydrocortisone, recombinant human insulin-like growth factor type-1 (rhIGF-1), prostaglandin E2 (PGE2), and recombinant human epidermal growth factor (rhEGF).
Normal human epidermal keratinocyte cells were incubated for 24 hr in the presence or absence of 500 μM sulindac. The medium was removed and the cells washed once with fresh medium followed by addition of medium containing the indicated concentration of (a) TBHP or (b) arsenic trioxide. After a 2 hr incubation with TBHP or a 24-hour incubation with arsenic trioxide at 37° C., the cells were assayed for viability as described.

[5] = test system: CCD-18Co normal human colon cell line; assay: MTS cell viability after sulindac pretreatment and TBHP, normal colon cells; format: cell-based; settings: 500 μM sulindac 24 hr, then TBHP 2 hr (FIG. 11)
Procedure: (§2) The cells were maintained in minimum essential medium (Eagle) supplemented with 2 mM L-glutamine, Earle's BSS containing 1.5 g/L sodium bicarbonate, 0.1 mM non-essential amino acids, 1.0 mM sodium pyruvate and 10% fetal bovine serum.

[6] = test system: MRC-5 normal human lung cell line; assay: MTS cell viability after sulindac pretreatment and TBHP, normal lung cells; format: cell-based; settings: 500 μM sulindac 24 hr, then TBHP 2 hr (FIG. 12)
Procedure: as §2

[7] = test system: Primary neonatal rat cardiac myocytes; assay: Killing by peroxide after sulindac, normal cardiac cells; format: cell-based; settings: sulindac followed by peroxide (hydrogen peroxide and TBHP)
Excerpt: (§3) Primary neonatal rat cardiac myocytes and ARPE-19, a human retinal pigment epithelial cell line that is not fully transformed, were used in similar experiments with sulindac followed by peroxide.

[8] = test system: ARPE-19, a human retinal pigment epithelial cell line; assay: Killing by peroxide after sulindac, retinal cells; format: cell-based; settings: sulindac followed by peroxide (hydrogen peroxide and TBHP)
Excerpt: as §3

normal cells = assay: Constant non-toxic TBHP with escalating sulindac (FIG. 16), normal cells; format: cell-based; settings: escalating sulindac 500 μM-1500 μM
cancer cells = assay: Constant non-toxic TBHP with escalating sulindac (FIG. 16), cancer cells; format: cell-based; settings: escalating sulindac 500 μM-1500 μM
Lung cancer cells = assay: Intracellular ROS levels, lung cancer cells; format: cell-based; settings: combination of sulindac and TBHP vs either treatment alone
Normal lung cells = assay: Intracellular ROS levels, normal lung cells; format: cell-based; settings: combination of sulindac and TBHP
[9] = Time course of sulindac pre-incubation before addition of the oxidant; format: cell-based
Procedure: Sulindac was pre-incubated for various times prior to the addition of the oxidant. […] There was no difference in the results with longer time courses such as 48-72 hours. After the pre-incubation with sulindac, the cells were washed and the oxidant was added with or without sulindac.

[10] = test system: SCC-25 squamous cell skin cancer cell line; assay: MTS cell viability after pretreatment and oxidative stress, SCC skin cancer cells; format: cell-based, human; settings: sulindac alone, concentrations below 1 mM, MTS assay
[11] = test system: Normal HEK skin cells (human neonatal epidermal keratinocytes); assay: Intracellular ROS by indicator dye fluorescence, normal HEK skin cells
Procedure: Experimental conditions: Normal HEK skin cells plated onto 6-well plates at cell density of 60-70% confluence. Sulindac (0.5 mM)×24 hours (cell density remained about the same) followed by TBHP×2 hours followed by ROS indicator dye (5 μM)×1 hour (Table 1).
Human neonatal epidermal keratinocytes were plated into 6-well plates at a cell density of 60-70% confluence. The cultures were pretreated with sulindac (500 uM) for 34 hours followed by the addition of different concentrations of TBHP for 2 hours. During this period of time, the cell density in the 6-well plates remained the same (there was no increase in cell proliferation). This was followed by the addition of the ROS indicator dye.

SCC skin cancer cells = assay: Intracellular ROS by indicator dye fluorescence, SCC skin cancer cells
Procedure: SCC skin cancer cells were plated onto 6-well plates at a cell density of 50-60% confluence. The cultures were pretreated with sulindac (500 uM) for 24 hours followed by the addition of TBHP (100 uM) for two hours. During this period of time, the cell density in the 6-well plates increased to 80-90% confluent.

[12] = test system: precancerous growths and/or BCC's; assay: Topical sulindac gel followed by hydrogen peroxide solution in patients; settings: applied alone to the skin condition
[13] = test system: lung carcinoma cell line designated A549; assay: MTS cell viability after pretreatment and oxidative stress, lung cancer cells
Procedure: Cell viability was determined by the [sequence] 96®-Aqueous One Cell Proliferation Assay (Promega) according to the manufacturer's instructions. The assay utilizes a novel tetrazolium compound (3-(4,5-dimethylthiazol-2-yl)-5-(3-carboxymethoxyphenyl)-2-(4-sulfophenyl)-2H-tetrazolium; MTS) and an electron-coupling reagent (phenazine ethosulfate; PES). Metabolically active cells convert the MTS to a water-soluble formazan by the action of cellular dehydrogenases. The amount of formazan produced is measured by absorbance at 490 nm using a colorimetric microtiter plate reader (BIORAD; Model 2550). Absorbance is directly proportional to the number of viable cells.
Experiments using similar methods were performed with a lung carcinoma cell line designated A549. […] Cells were grown in Ham's F12K medium supplemented with final concentrations of 2 mM L-glutamine, 1.6 g/L sodium bicarbonate and 10% fetal bovine serum. Cultures were maintained between 6×10^3-6×10^4 cells/cm^2 in standard tissue culture flasks. The protocol for pretreatment of cells with 500 μM sulindac followed by a two hour exposure to various concentrations of TBHP was the same as that described for the RKO colon cancer cells.
Following a 24 hr pretreatment with 500 μM sulindac, the cells were washed once to remove the excess sulindac before exposure to TBHP for 2 hr.

CC1=C(CC(=O)O)c2cc(F)ccc2/C1=C\c1ccc([S+](C)[O-])cc1 (racemic) [sulindac, Sulindac]
killing of SCC carcinoma cells by TBHP [1]: enhanced the killing | killing of RKO carcinoma cells by TBHP [2]: enhanced the killing | killing of Melanoma cells by TBHP [3]: enhanced the killing | viability of normal human epidermal keratinocytes, TBHP ([4]; 500 μM sulindac 24 hr, then TBHP 2 hr (FIG. 10A)): no significant effect | viability of normal human epidermal keratinocytes, arsenic trioxide ([4]; 500 μM sulindac 24 hr, then arsenic trioxide 24 hr (FIG. 10B)): no significant effect | TBHP concentrations with protective effect (enhanced resistance to oxidative stress) ([4]; in combination with sulindac, effect lost above 400 μM TBHP): 50 to 400 µM | effect on oxidative stress by TBHP, normal colon cells [5]: provided protection from oxidative stress | effect on oxidative stress by TBHP, normal lung cells [6]: provided protection from oxidative stress | killing of normal cardiac cells by peroxide [7]: no enhanced killing | killing of retinal cells by peroxide [8]: no enhanced killing | effect on normal cells (normal cells): protective effect | effect on cancer cells (cancer cells): enhanced killing | intracellular ROS levels, lung cancer cells (Lung cancer cells): significantly higher levels of ROS | intracellular ROS levels, normal lung cells (Normal lung cells): lower levels of ROS | minimum pre-incubation time with sulindac to see an effect [9]: ≥ 6 h | pre-incubation time with sulindac giving optimum effects [9]: 18 to 24 h | toxicity of sulindac: effect on cell viability [10]: no detectable effect on cell viability | % Cells with ROS Uptake by Fluorescence ([11]; Table 1, Sul alone, 0.5 mM 24 hours): 2% | % Cells containing ROS ([11]; Table 4, Sul 500 uM alone): 2% | level of ROS uptake in normal HEK cells when combined with TBHP ([11]; sulindac combined with TBHP vs sulindac or TBHP alone): no significant effect | % Cells with ROS Uptake by Fluorescence (SCC skin cancer cells; Table 2, Sul 0.5 mM 24 hours and/or TBHP 100 μM 2 hours): 3% | % Cells containing ROS (SCC skin cancer cells; Table 3, Sul 500 μM 24 hours and/or TBHP 100 μM 2 hours): 3% | number of spindle cells in the culture (SCC skin cancer cells; compared to untreated controls): tends to increase the number of spindle cells | ROS uptake in SCC skin cancer cells, sulindac in combination with TBHP (SCC skin cancer cells; sulindac 0.5 mM 24 hours then TBHP 100 μM 2 hours): geometrically enhances the levels of ROS uptake | ROS levels in SCC skin cancer cells, agent alone (SCC skin cancer cells; sulindac 500 uM or TBHP 100 uM alone): enhances the levels of ROS uptake; also recorded: enhanced the ROS levels | effect on the precancerous or cancerous growth when applied alone [12]: no effect | cell viability of lung cancer cells after exposure to TBHP ([13]; 500 μM sulindac 24 hr pretreatment, then TBHP 2 hr (FIG. 6)): marked decrease in cell viability | sensitivity of lung cancer cells to killing by H2O2 ([13]; 500 μM sulindac pretreatment (FIG. 7)): differentially sensitive to killing | viability of cells pretreated with sulindac ([13]; 1.5-2.0 mM TBHP, 2 hr, 500 μM sulindac pretreatment): at background levels | killing effect in all cancer cell studies ([13]; FIG. 15, 500 μM sulindac, 250 μM sulindac sulfone): most potent killing effect | H2O2 range in which difference in viability is highly significant (P<0.001) ([13]; sulindac-treated vs untreated cells): 2.5 to 5.0 mM
